Source: patent publication US20100243432A1, “HUMIDIFIER” (priority 2007, published 2010)

Assay: solubility of AgCl calculated from solubility product
Assay type: physicochemical
Details: in water
Text: As described above, it can be seen that when the silver ions are eluted through the electrolysis, the sterilization can be more efficiently conducted than when the silver ions are eluted through other methods.

## [Cl][Ag] [AgCl, silver chloride]
  dissolvable AgCl, as a concentration of the silver ions: approximately 1.5 mg/L
